Measurements: US20160139123A1, “Shear Wave Imaging Method and Installation for Collecting Information on a Soft Solid” (INSTITUT NATIONAL DE LA SANTE ET DE LA RECHERCHE MEDICALE …, priority 2013, published 2016)

Tested on: naive CD4 T cells
Test: Differentiation induction of naive CD4 T cells (DP8α induction)
Format: cell-based, human
Conditions: for effect on the frequency of DP8α cells: short chain fatty acid added to the induction culture
Procedure: Naive CD4 T cells are obtained from PBMC or PBL using the EasySep negative selection kit for naive CD4 T cells ([…] technologies).
Monocytes are isolated from PBMC using the CD14 microbeads positive selection kit of Miltenyi.
Immature dendritic cells (iDC) are prepared from monocytes (CD14+) cultured for 3 days with IL-4 (200 IU/ml) and GM-CSF (1000 IU/ml). Said cells are also called mo-iDC (monocyte-derived immature dendritic cells).
Immature DC are co-cultured for a night with thawed F. prausnitzii bacteria at 1:1 ratio in the presence or not of butyrate. The iDC are then added to naive CD4 cells for 5 days in the presence of IL-2.
Alternatively, butyrate is added later, at the same time as naive CD4 T cell.
DP8α induction is measured by a labeling with CD3-PE (phycoerythrin), CD4-FITC, CD8-APC (allophycocyanin) antibodies. The results are compared with those obtained with unstimulated CD4 T cells, CD4 T cells stimulated by iDC alone and CD4 T cells stimulated by iDC loaded with E. coli.

Row | SMILES | effect on the frequency of DP8α cells | fraction of naive CD4 T cells that acquire the DP8α phenotype (mean) (butyrate 0.145 mM added to iDC loaded with F. prausnitzii)
1 | CC(=O)O [acetate] | no or few effect | 
2 | CCCC(=O)O [butyrate] |  | 6%
3 | CCC(=O)O [propionate] | no or few effect | 
